Data published in the supplement of paper PMC10307832.

Tests used:
Test in all cases: relative viability (nuclei count vs DMSO), 5 days (fraction); higher = more cells survive
[1] = compound: CN(c1ncccc1CNc1nc(Nc2ccc3c(c2)CC(=O)N3)ncc1C(F)(F)F)S(C)(=O)=O + C[C@]1(O)C[C@@H](c2nc(-c3ccc4ccc(-c5ccccc5)nc4c3)c3c(N)nccn32)C1 [Linsitinib] (partner 1 µM)
Summary of the method: (§1)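 The day after seeding in 1536-well plates, lung cancer cell lines were treated by pin tool with a single drug, or with a fixed anchor-drug dose together with five library-drug doses (not always all listed) in √10 steps. After 5 days, a combined fix-and-stain solution (final 0.05% Triton X-100, 1% formaldehyde, 1 ug/ml Hoechst) was added. Nuclei counted on 4× images gave relative viability as treated counts over vehicle counts, reported as the median of duplicate plates.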

[2] = compound: CN(c1ncccc1CNc1nc(Nc2ccc3c(c2)CC(=O)N3)ncc1C(F)(F)F)S(C)(=O)=O + CC1(C)CCC(c2ccc(Cl)cc2)=C(CN2CCN(c3ccc(C(=O)NS(=O)(=O)c4ccc(N[C@H](CCN5CCOCC5)CSc5ccccc5)c(S(=O)(=O)C(F)(F)F)c4)cc3)CC2)C1 [Navitoclax] (partner 0.5 µM)
Summary of the method: as §1

[3] = compound: CN(c1ncccc1CNc1nc(Nc2ccc3c(c2)CC(=O)N3)ncc1C(F)(F)F)S(C)(=O)=O + O=C(CCCCCCC(=O)Nc1ccccc1)NO [Vorinostat] (partner 1 µM)
Summary of the method: as §1

[4] = compound: CN(c1ncccc1CNc1nc(Nc2ccc3c(c2)CC(=O)N3)ncc1C(F)(F)F)S(C)(=O)=O + Cc1nc(NC(=O)N2CCC[C@H]2C(N)=O)sc1-c1ccnc(C(C)(C)C(F)(F)F)c1 [Alpelisib] (partner 2 µM)
Summary of the method: as §1

Row | Cell Line | relative viability ([1]; first compound 0.01 µM) | relative viability ([1]; first compound 0.03162 µM) | relative viability ([1]; first compound 0.1 µM) | relative viability ([1]; first compound 0.3162 µM) | relative viability ([1]; first compound 1 µM) | relative viability ([2]; first compound 0.01 µM) | relative viability ([2]; first compound 0.03162 µM) | relative viability ([2]; first compound 0.1 µM) | relative viability ([2]; first compound 0.3162 µM) | relative viability ([2]; first compound 1 µM) | relative viability ([3]; first compound 0.01 µM) | relative viability ([3]; first compound 0.03162 µM) | relative viability ([3]; first compound 0.1 µM) | relative viability ([3]; first compound 0.3162 µM) | relative viability ([3]; first compound 1 µM) | relative viability ([4]; first compound 0.01 µM) | relative viability ([4]; first compound 0.03162 µM) | relative viability ([4]; first compound 0.1 µM) | relative viability ([4]; first compound 0.3162 µM) | relative viability ([4]; first compound 1 µM)
1 | NCI-H1793 | 0.883 | 0.929 | 0.894 | 0.857 | 0.601 | 0.407 | 0.562 | 0.498 | 0.377 | 0.303 | 0.866 | 0.724 | 0.785 | 0.699 | 0.713 | 0.77 | 0.765 | 0.611 | 0.674 | 0.659
2 | NCI-H1395 | 0.939 | 1.12 | 0.981 | 1.1 | 1.2 | 1.19 | 1.25 | 1.04 | 1.06 | 1.31 | 0.792 | 0.698 | 0.725 | 0.659 | 0.898 | 0.996 | 1.08 | 0.997 | 1.06 | 1.06
3 | HCC-827 | 0.999 | 0.915 | 0.93 | 0.905 | 0.914 | 1.01 | 1 | 0.995 | 1.04 | 0.915 | 0.923 | 0.861 | 0.806 | 0.954 | 0.783 | 1.02 | 1.07 | 1.03 | 1.01 | 0.942
4 | NCI-H2228 | 0.502 | 0.286 | 0.627 | 1.06 | 0.929 | 0.732 | 1.18 | 0.783 | 0.755 | 0.741 | 0.42 | 0.579 | 0.758 | 0.882 | 0.547 | 0.634 | 0.766 | 0.857 | 0.633 | 0.701
5 | EMC-BAC-2 | 0.797 | 0.838 | 0.792 | 0.79 | 0.804 | 1.18 | 1.24 | 1.05 | 1.16 | 1.2 | 0.46 | 0.229 | 0.446 | 0.44 | 0.443 | 0.761 | 0.811 | 0.68 | 0.698 | 0.676
6 | NCI-H23 | 0.598 | 0.695 | 0.549 | 0.678 | 0.723 | 0.867 | 1.04 | 1.08 | 0.969 | 0.837 | 0.659 | 0.594 | 0.633 | 0.714 | 0.662 | 0.668 | 0.84 | 0.727 | 0.692 | 0.56
7 | RERF-LC-KJ | 0.838 | 0.964 | 0.877 | 0.83 | 0.933 | 0.966 | 1.05 | 0.862 | 0.956 | 0.693 | 0.643 | 0.78 | 0.692 | 0.728 | 0.603 | 0.838 | 0.955 | 0.813 | 0.765 | 0.825
8 | LC-2-ad | 0.85 | 0.784 | 0.862 | 0.786 | 0.847 | 0.556 | 0.479 | 0.433 | 0.364 | 0.322 | 0.739 | 0.756 | 0.674 | 0.635 | 0.584 | 0.789 | 0.714 | 0.883 | 0.902 | 0.877
9 | HCC-15 | 0.898 | 0.894 | 0.802 | 0.86 | 0.688 | 0.716 | 0.745 | 0.639 | 0.579 | 0.507 | 0.79 | 0.796 | 0.741 | 0.77 | 0.675 | 0.849 | 0.892 | 0.819 | 0.785 | 0.779
10 | NCI-H2405 | 0.899 | 0.935 | 0.818 | 0.865 | 0.824 | 0.802 | 0.993 | 0.66 | 0.705 | 0.679 | 0.961 | 0.724 | 0.971 | 0.761 | 0.868 | 0.837 | 0.757 | 0.719 | 0.72 | 0.727
11 | LXF-289 | 1.03 | 1.03 | 0.95 | 0.947 | 0.936 | 0.988 | 1.04 | 0.962 | 0.929 | 0.911 | 0.887 | 0.787 | 0.782 | 0.697 | 0.792 | 1.05 | 1.07 | 1.07 | 0.988 | 0.947
12 | CAL-12T | 0.886 | 0.861 | 0.705 | 0.616 | 0.639 | 1.25 | 1.1 | 1.27 | 1.27 | 0.883 | 0.91 | 0.854 | 0.726 | 0.767 | 0.708 | 1.12 | 1.58 | 1.26 | 1.16 | 0.946
13 | COR-L23 | 0.853 | 0.983 | 0.818 | 1.07 | 0.735 | 0.929 | 1.09 | 0.933 | 1.01 | 0.826 | 0.471 | 0.392 | 0.327 | 0.305 | 0.295 | 0.742 | 0.846 | 0.713 | 0.647 | 0.702
14 | NCI-H1755 | 0.997 | 0.951 | 0.961 | 0.979 | 0.908 | 1.01 | 1.03 | 0.972 | 0.94 | 0.875 | 0.79 | 0.756 | 0.787 | 0.75 | 0.66 | 0.904 | 0.946 | 0.94 | 0.82 | 0.848
15 | NCI-H1437 | 0.988 | 1.08 | 1.08 | 0.978 | 0.951 | 1.1 | 1.09 | 1.16 | 0.986 | 0.968 | 0.763 | 0.846 | 0.697 | 0.597 | 0.414 | 0.973 | 1.13 | 1.05 | 0.941 | 0.788
16 | NCI-H2085 | 0.925 | 0.981 | 0.895 | 0.842 | 0.776 | 1.09 | 1.17 | 1.13 | 1.19 | 0.934 | 0.816 | 0.837 | 0.761 | 0.734 | 0.691 | 0.903 | 0.904 | 0.882 | 0.922 | 0.812
